In article PMC6203605 (Journal of biological inorganic chemistry : JBIC : a …, 2018):

Assays:
HemO [1] = biological target: HemO (Pseudomonas aeruginosa, UniProt G3XCZ8); assay: intrinsic fluorescence quenching; assay type: binding
HemO [2] = biological target: HemO (Pseudomonas aeruginosa, UniProt G3XCZ8, D99A); assay: biochemical
HemO [3] = biological target: HemO (Pseudomonas aeruginosa, UniProt G3XCZ8, D99A/R188A); assay: biochemical
HemO [4] = biological target: HemO (Pseudomonas aeruginosa, UniProt G3XCZ8, R188A); assay: biochemical

Compound `C=CC1=C(C)C2=Cc3c(C=C)c(C)c4[n]3[Fe]([Cl])[n]3c(c(C)c(CCC(=O)O)c3=CC3=NC(=C4)C(C)=C3CCC(=O)O)=CC1=N2` [heme] has a Kd (HemO [1]) of 870 ± 170 nM, a Kd (HemO [2]) of 830 ± 210 nM and a Kd (HemO [3]) of 990 ± 210 nM. For the same compound, the Kd (HemO [4]) was 790 ± 220 nM.
